The nature of data set [1]: Pharmacokinetics in mice, single IV / oral dose. In kind it is in vivo. Here is the method: (§1) The pharmacokinetics of Compound 2R (HCl salt) and Comparative Compound 2 were studied following a single intravenous and/or oral administration to mice, dogs, and monkeys (n=3 for all species). The IV and PO solution formulations for Comparative Compound 2 contained 20% (w/v) propylene glycol, 75% (w/v) 50 mM trisodium phosphate (pH 12), and 5% (w/v) Kolliphor EL. The formulation for Compound 2R contained 1:2 propylene glycol: 1% Tween 80/Na3PO4 (50 mM). Subsequent pharmacokinetic data analysis was performed using non-compartmental analysis modules in Phoenix/WINNONLIN 6.3 (Pharsight, St. Louis, Missouri, USA), and the linear trapezoidal rule was used for AUC calculation. Terminal elimination half-life (t½) was calculated based on data points (≥3) in the terminal phase; Tmax=Time of maximum observed concentration; AUClast/D=Area under the concentration-time curve from time zero to the last observed concentration/divided by dose; Cl_obs=Total body clearance; Cmax=maximum observed concentration; F=bioavailability of oral dose form. Blood samples were assayed for compounds using protein precipitation with acetonitrile followed by HPLC/MS/MS analysis. Blood concentration-time data were analyzed by non-compartmental methods.

Data set [2] can be described thus: Pharmacokinetics in dogs, single IV / oral dose. Type of data set: in vivo. Here is the method:
as §1

Data set [3] in a line: Tolerability in the xenograft studies. In kind it is in vivo. Particulars: highest dose tested 100 mg/kg, daily dosing over >50 days, all xenograft studies. Here is the method: Xenograft Studies. Female NCR nude mice (CrTac:NCr-Foxn1mu from Taconic), 6-7 weeks old, were implanted subcutaneously with 5×10^6 cells in a […] serum-free media/Matrigel® mixture into the region of the right axilla, Mice were randomized into treatment groups and treatments initiated when tumors reached 100 to 200 mg. Compound 2R was administered daily by oral gavage as a fine suspension in 1:2 propylene glycol in 1% Tween80, Na3PO4 based upon individual animal body weight (0.2 mL/20 g). Subcutaneous tumor volume and body weights were measured two to three times a week. Tumor volumes were calculated by measuring two perpendicular diameters with calipers and using the formula: tumor volume=(length×width2)/2. Individual mice were dosed daily until their tumor burden reached 500 mg for the CAL-27 and HCC-70 models or 1000 mg for the CAL-33 model, to allow for calculation of increase in progression-free survival. Percent increase in survival was calculated by comparing the median time to reach either 500 mg or 1000 mg in the treated group versus the vehicle control group. A complete response (CR) is defined as a tumor below the limits of palpation ([…]).

Data set [4] can be described thus: Pharmacokinetics in monkeys, single IV / oral dose. Type of data set: in vivo. The method, then:
as §1

Data set [5] in a line: Solubility determination (PBS 7.4, SIF, SGF). In kind it is physicochemical. Particulars: kinetic from dmso stock. The method, then: Preparation of stock solutions: The stock solutions of test compounds and control compound diclofenac were prepared in DMSO at the concentrations of 10 mM.
Simulated Gastric Fluid (SGF): An aqueous mixture including hydrochloric acid, sodium chloride, and pepsin (pH=1.2).
Simulated Intestinal Fluid (SIF): Prepared by dissolving 6.8 g of KH2PO4 into about 500 mL ultrapure water and adjust the solution to a pH 6.8 with 0.1 M NaOH. 10 g trypsin is then dissolved into ultrapure water. The two solutions are mixed well and diluted with ultrapure water to a final volume of 1000 mL.
485 μL of (SIF, SGF, PBS 7.4, FESSIF, or FESSGF) was added into each vial of the cap-less Solubility Sample plate. The assay was performed in duplicate. Add one stir stick to each vial and seal using a molded PTFE/Silicone plug. […] After completion of the 2 hours, plugs were removed and the stir sticks were removed using a big magnet, the samples from the Solubility Sample plate were transferred into the filter plate. Using the Vacuum Manifold, all the samples were filtered. Aliquot of 5 μL and 5 μL DMSO were taken from the filtrate followed by addition of 490 μL of a mixture of H2O and acetonitrile containing internal standard (1:1). A certain proportion of ultrapure water was used to dilute the diluent according to the peak shape. The dilution factor was changed according to the solubility values and the LC-MS signal response.
Preparation of 300 μM standards (STD): From the 10 mM DMSO STD plate, 6 μL was transferred into the remaining empty plate, and then 194 μL of DMSO was added to that plate to have a STD concentration of 300 μM. From the 300 μM DMSO STD plate, 5 μL DMSO STD and 5 μL SIF was transferred into the remaining empty plate, and then 490 μL of a mixture of H2O and acetonitrile containing internal standard (1:1) was added to that plate to have a final STD concentration of 3 μM. A certain proportion of ultrapure water was used to dilute the diluent according to the peak shape. The concentrations of the standard samples were changed according to the LC-MS signal response.
Procedure for sample analysis: The plate was placed into the well plate autosampler. The samples were evaluated by LC-MS/MS analysis.
Data analysis: All calculations were carried out using Microsoft Excel. The filtrate was analyzed and quantified against a standard of known concentration using LC coupled with mass spectral peak identification and quantitation. Solubility values of the test compound and control compound were calculated as follows: […]
Any value of the compounds that was not within the specified limits was rejected and the experiment was repeated.

The target in another data set is PI3Ka (Homo sapiens, UniProt P42336). In words: Z′-LYTE / ADAPTA kinase assay, PI3Ka. In kind it is biochemical. As to conditions: for inhibition at 0.1 µM: read-out: PI3Ka % Inh. @100 nM. From the text: The Z′-LYTE® biochemical assay employs a fluorescence-based, coupled-enzyme format and is based on the differential sensitivity of phosphorylated and non-phosphorylated peptides to proteolytic cleavage (FIG. 6). The peptide substrate is labeled with two fluorophores—one at each end—that make up a FRET pair. In the primary reaction, the kinase transfers the gamma-phosphate of ATP to a single tyrosine, serine or threonine residue in a synthetic FRET-peptide. In the secondary reaction, a site-specific protease recognizes and cleaves non-phosphorylated FRET-peptides. Phosphorylation of FRET-peptides suppresses cleavage by the Development Reagent. Cleavage disrupts FRET between the donor (i.e., coumarin) and acceptor (i.e., fluorescein) fluorophores on the FRET-peptide, whereas uncleaved, phosphorylated FRET-peptides maintain FRET. A ratiometric method, which calculates the ratio (the Emission Ratio) of donor emission to acceptor emission after excitation of the donor fluorophore at 400 nm, is used to quantitate reaction progress.
Sequence of PI3Ka (P42336 whole entry): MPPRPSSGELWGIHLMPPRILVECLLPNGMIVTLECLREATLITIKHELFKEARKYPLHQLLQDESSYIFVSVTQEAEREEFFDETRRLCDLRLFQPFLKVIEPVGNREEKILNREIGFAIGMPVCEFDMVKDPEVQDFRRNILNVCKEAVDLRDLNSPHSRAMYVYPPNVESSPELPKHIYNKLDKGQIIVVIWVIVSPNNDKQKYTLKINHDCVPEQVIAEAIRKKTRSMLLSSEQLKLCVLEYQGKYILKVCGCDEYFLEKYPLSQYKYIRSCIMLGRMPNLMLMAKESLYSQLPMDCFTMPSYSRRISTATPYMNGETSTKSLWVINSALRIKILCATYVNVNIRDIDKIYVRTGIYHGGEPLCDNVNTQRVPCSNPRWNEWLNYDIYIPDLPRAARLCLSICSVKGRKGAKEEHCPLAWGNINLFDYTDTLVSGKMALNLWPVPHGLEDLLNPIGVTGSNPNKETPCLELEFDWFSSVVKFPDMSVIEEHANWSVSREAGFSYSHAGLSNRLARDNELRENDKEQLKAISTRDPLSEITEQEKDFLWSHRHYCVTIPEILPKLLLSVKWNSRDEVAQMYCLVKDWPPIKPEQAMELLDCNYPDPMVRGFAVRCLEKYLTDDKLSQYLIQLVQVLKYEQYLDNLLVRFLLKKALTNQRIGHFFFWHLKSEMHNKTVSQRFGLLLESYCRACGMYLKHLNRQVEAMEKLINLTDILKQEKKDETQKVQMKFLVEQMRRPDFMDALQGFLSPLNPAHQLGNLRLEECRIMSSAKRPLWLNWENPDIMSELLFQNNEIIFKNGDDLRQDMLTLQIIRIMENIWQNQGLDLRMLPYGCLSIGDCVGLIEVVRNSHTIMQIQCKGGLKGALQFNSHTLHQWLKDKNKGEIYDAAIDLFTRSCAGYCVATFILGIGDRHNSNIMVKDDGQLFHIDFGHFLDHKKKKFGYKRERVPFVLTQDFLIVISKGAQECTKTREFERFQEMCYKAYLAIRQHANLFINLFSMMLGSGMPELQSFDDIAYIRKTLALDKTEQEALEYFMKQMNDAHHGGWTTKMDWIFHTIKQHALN
Sequence of PI3Ka (P27986 whole entry partner): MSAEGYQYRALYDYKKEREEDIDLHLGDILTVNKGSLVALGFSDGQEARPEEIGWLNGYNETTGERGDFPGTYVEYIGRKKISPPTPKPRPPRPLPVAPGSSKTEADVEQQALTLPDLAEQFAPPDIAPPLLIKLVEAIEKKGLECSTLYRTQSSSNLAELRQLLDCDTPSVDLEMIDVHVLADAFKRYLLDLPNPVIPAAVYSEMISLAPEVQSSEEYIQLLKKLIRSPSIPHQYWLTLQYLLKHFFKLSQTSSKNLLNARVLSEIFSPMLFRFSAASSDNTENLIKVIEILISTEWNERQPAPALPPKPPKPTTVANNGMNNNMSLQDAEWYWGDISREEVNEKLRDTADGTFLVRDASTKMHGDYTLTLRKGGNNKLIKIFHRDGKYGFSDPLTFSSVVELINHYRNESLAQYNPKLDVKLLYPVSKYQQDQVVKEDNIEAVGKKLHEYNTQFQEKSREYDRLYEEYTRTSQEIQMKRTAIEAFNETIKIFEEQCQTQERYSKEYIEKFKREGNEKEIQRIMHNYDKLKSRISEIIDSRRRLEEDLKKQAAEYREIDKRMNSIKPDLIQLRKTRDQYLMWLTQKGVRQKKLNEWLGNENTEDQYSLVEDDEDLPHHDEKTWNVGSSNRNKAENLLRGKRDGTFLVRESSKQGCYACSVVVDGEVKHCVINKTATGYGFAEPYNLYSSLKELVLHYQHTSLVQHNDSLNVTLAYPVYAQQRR
A significant benefit of this ratiometric method for quantitating reaction progress is the elimination of well-to-well variations in FRET-peptide concentration and signal intensities. As a result, the assay yields very high Z′-factor values (>0.7) at a low percent phosphorylation.
Both cleaved and uncleaved FRET-peptides contribute to the fluorescence signals and therefore to the Emission Ratio. The extent of phosphorylation of the FRET-peptide can be calculated from the Emission Ratio.
Enzyme: The ADAPTA universal kinase assay is a homogenous, fluorescent based immunoassay for the detection of ADP. In contrast to ATP depletion assays, the ADAPTA assay is extremely sensitive to ADP formation such that a majority of the signal change occurs in the first 10-20% conversion of ATP to ADP. This makes the ADAPTA universal kinase assay ideally suited for use with low activity kinases.
The principle of the ADAPTA universal kinase assay is outlined below. The assay itself can be divided into two phases: a kinase reaction phase, and an ADP detection phase. In the kinase reaction phase, all components required for the kinase reaction are added to the well, and the reaction is allowed to incubate for 60 minutes. After the reaction, a detection solution consisting of a europium labeled anti-ADP antibody, an AlexaFluor® 647 labeled ADP tracer, and EDTA (to stop the kinase reaction) is added to the assay well. ADP formed by the kinase reaction (in the absence of an inhibitor) will displace the Alexa Fluor®647 labeled ADP tracer from the antibody, resulting in a decrease in the TR-FRET signal.
Test Compounds: The Test Compounds are screened in 1% DMSO (final) in the well. For 10 point titrations, 3-fold serial dilutions are conducted from the starting concentration.
Peptide/Kinase Mixtures: All Peptide/Kinase Mixtures are diluted to a 2× working concentration in the appropriate Kinase Buffer.
ATP Solution: All ATP Solutions are diluted to a 4× working concentration in Kinase Buffer (50 mM HEPES pH 7.5, 0.01% BRIJ-35, 10 mM MgCl2, 1 mM EGTA). ATP Km apparent is previously determined using a Z′-LYTE® assay.
Development Reagent Solution: The Development Reagent is diluted in Development Buffer.
10× Novel PKC Lipid Mix: 2 mg/mL Phosphatidyl Serine, 0.2 mg/mL DAG in 20 mM HEPES, pH 7.4, 0.3% CHAPS. For 5 mL 10× Novel PKC Lipid Mix: 1. Add 10 mgs Phosphatidyl Serine (Avanti Polar Lipids Part #8400032C or 840039C) and 1 mg DAG (Avanti Polar Lipids Part #800811 C) to a glass tube. 2. Remove the chloroform from lipid mixture by evaporating to a clear, thin film under a stream of nitrogen. Continuous rotation of the tube, at an angle to ensure maximum surface area of the lipid solution, will promote the thinnest film. 3. Add 5 mLs resuspension buffer, 20 mM HEPES, 0.3% CHAPS, pH 7.4, to the dried lipid mix 4. Heat gently to 50-60° C. for 1-2 minutes and vortex in short intervals until the lipids are dissolved to a clear or slightly hazy solution. […]

The structures appear in SMILES notation. Read-outs that look alike come from different tables or passages of the source.

What is called solubility is the concentration that dissolves in the medium under given conditions. One may read the IC50 as the concentration needed to halve the response being measured. A higher IC50 goes with weaker potency in that assay.

Consider `C[C@@H](Nc1ncnc2ccc(-c3cnc(Cl)c(NS(C)(=O)=O)c3)cc12)c1ccccc1` [Compound 2R, N-(2-chloro-5-(4-((1R-phenylethyl)amino)quinazolin-6-yl)pyridin-3-yl)methanesulfonamide], for which the entries for the “increase in exposure (AUClast/D) vs Comparative Compound 2” value in data set [1] (IV), in data set [2] (IV) and in data set [4] (IV) were roughly 3 fold, roughly 15 fold and roughly 3 fold, respectively. In addition, the “enhanced exposure (AUClast/D) relative to Comparative Compound 2” value in data set [1] (oral) stood at 3 fold. The results for the “improvement in exposure (AUClast/D) vs Comparative Compound 2” value in data set [2] (oral) and in data set [4] (oral) were greater than 28 fold and greater than 74 fold, respectively. Also, in data set [3], the “Tolerability (body weight loss, clinical signs)” value was “well tolerated”.

For the molecule `C[C@@H](Nc1c(C#N)cnc2ccc(-c3cnc(Cl)c(NS(C)(=O)=O)c3)cc12)c1ccccc1` [Compound 48R, N-(2-chloro-5-(3-cyano-4-((1R-phenylethyl)amino)quinolin-6-yl)pyridin-3-yl)methanesulfonamide], the solubility at 2 h in data set [5] (aqueous buffer, PBS pH 7.4, 25° C., read-out: Solubility pH 7.4 PBS buffer) was no more than 20 µM; in data set [5] (simulated gastric fluid (SGF), simulated gastric fluid pH 1.2, 25° C., read-out: Solubility SGF) it was greater than 200 µM; in data set [5] (simulated intestinal fluid (SIF), fassgf or other biorelevant, simulated intestinal fluid pH 6.8, 25° C., read-out: Solubility SIF) it was no more than 20 µM. The IC50 against PI3Ka lay within 2 to 20 nM.

With `C[C@H](Nc1c(C#N)cnc2ccc(-c3cnc(Cl)c(NS(C)(=O)=O)c3)cc12)c1ccccc1` [Compound 48S, N-(2-chloro-5-(3-cyano-4-((1S-phenylethyl)amino)quinolin-6-yl)pyridin-3-yl)methanesulfonamide], the IC50 against PI3Ka was less than 2 nM.

For the molecule `C[C@@H](Nc1c(C#N)cnc2ccc(-c3cnc(Cl)c(NS(C)(=O)=O)c3)cc12)c1ccc(F)cc1` [Compound 97R, N-[2-chloro-5-[3-cyano-4-[[(1R)-1-(4-fluorophenyl)ethyl]amino]-6-quinolyl]-3-pyridyl]methanesulfonamide], the inhibition at 0.1 µM on PI3Ka fell in the range of 80 to 90%.

With `CS(=O)(=O)Nc1cc(-c2ccc3ncc(C#N)c(NC4c5ccccc5CC4O)c3c2)cnc1Cl` (stereo not drawn) [Compound 103, N-[2-chloro-5-[3-cyano-4-[(2-hydroxyindan-1-yl)amino]-6-quinolyl]-3-pyridyl]methanesulfonamide], on PI3Ka, the inhibition at 0.1 µM is greater than 90%.

Take `CS(=O)(=O)Nc1cc(-c2ccc3ncc(C#N)c(NC4(c5ccccc5)CC4)c3c2)cnc1Cl` [Compound 106, N-[2-chloro-5-[3-cyano-4-[(1-phenylcyclopropyl)amino]-6-quinolyl]-3-pyridyl]methanesulfonamide]: on PI3Ka, the inhibition at 0.1 µM is greater than 90%.
